Results: US20090170893A1, “NOVEL HYDRATE FORM” (priority 2006, published 2009)

Assay: storage stability of the solid form (polymorphic conversion)
Type: physicochemical

COc1c(N2C[C@@H]3CCCN[C@@H]3C2)c(F)cc2c(=O)c(C(=O)O)cn(C3CC3)c12.Cl [Example 1, 1-cyclopropyl-7-([S,S]-2,8-diazabicyclo-[4.3.0]non-8-yl)-6-fluoro-1,4-dihydro-8-methoxy-4-oxo-3-quinolinecarboxylic acid]
stability / polymorphic conversion on prolonged storage (prolonged storage over 3 weeks at ambient conditions): stable and exhibit no polymorphic conversion | stability / polymorphic conversion on prolonged storage (prolonged storage over 3 weeks at high humidity accelerated conditions): stable and exhibit no polymorphic conversion
